Source: the supplement of paper PMC10307832

Assays:
Assay in all cases: relative viability (nuclei count vs DMSO), 5 days (fraction); higher = more cells survive
Seliciclib = compound: CC[C@H](CO)Nc1nc(NCc2ccccc2)c2ncn(C(C)C)c2n1 [Seliciclib]
Method in brief: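 Viability was defined as treated-well nuclei divided by vehicle-well nuclei, with the median taken over replicate plates. Cells from lung cancer lines sat overnight at 37 °C in 1536-well plates, received five √10-spaced library-drug doses by pinning on vehicle-anchored plates, and grew 5 days without medium change before one-step fixation, permeabilisation and Hoechst staining, 4× imaging and MetaXpress nuclear counts. Only plates with control CV under 25% and at least one doubling were kept.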

Seliciclib + Tozasertib = compound: CC[C@H](CO)Nc1nc(NCc2ccccc2)c2ncn(C(C)C)c2n1 [Seliciclib] + Cc1cc(Nc2cc(N3CCN(C)CC3)nc(Sc3ccc(NC(=O)C4CC4)cc3)n2)n[nH]1 [Tozasertib] (partner 0.1 µM)
Method in brief: (§1)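 Dosing by pin tool came one day after lung cancer cell lines were seeded in 1536-well plates, using either one drug or a fixed anchor-drug dose plus five library-drug doses (not always all listed) in √10 steps. After 5 days, nuclei were counted on 4× images. Relative viability is treated-well nuclei count divided by vehicle-well nuclei count, and values are medians of duplicate plates.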

Seliciclib + Navitoclax = compound: CC[C@H](CO)Nc1nc(NCc2ccccc2)c2ncn(C(C)C)c2n1 [Seliciclib] + CC1(C)CCC(c2ccc(Cl)cc2)=C(CN2CCN(c3ccc(C(=O)NS(=O)(=O)c4ccc(N[C@H](CCN5CCOCC5)CSc5ccccc5)c(S(=O)(=O)C(F)(F)F)c4)cc3)CC2)C1 [Navitoclax] (partner 0.5 µM)
Method in brief: as §1

Seliciclib + Phenformin = compound: CC[C@H](CO)Nc1nc(NCc2ccccc2)c2ncn(C(C)C)c2n1 [Seliciclib] + N=C(N)NC(=N)NCCc1ccccc1 [Phenformin] (partner 250 µM)
Method in brief: as §1

| Cell Line | relative viability (Seliciclib; 0.08 µM) | relative viability (Seliciclib; 0.253 µM) | relative viability (Seliciclib; 0.8 µM) | relative viability (Seliciclib; 2.53 µM) | relative viability (Seliciclib; 8 µM) | relative viability (Seliciclib + Tozasertib; first compound 0.08 µM) | relative viability (Seliciclib + Tozasertib; first compound 0.253 µM) | relative viability (Seliciclib + Tozasertib; first compound 0.8 µM) | relative viability (Seliciclib + Tozasertib; first compound 2.53 µM) | relative viability (Seliciclib + Tozasertib; first compound 8 µM) | relative viability (Seliciclib + Navitoclax; first compound 0.08 µM) | relative viability (Seliciclib + Navitoclax; first compound 0.253 µM) | relative viability (Seliciclib + Navitoclax; first compound 0.8 µM) | relative viability (Seliciclib + Navitoclax; first compound 2.53 µM) | relative viability (Seliciclib + Navitoclax; first compound 8 µM) | relative viability (Seliciclib + Phenformin; first compound 0.08 µM) | relative viability (Seliciclib + Phenformin; first compound 0.253 µM) | relative viability (Seliciclib + Phenformin; first compound 0.8 µM) | relative viability (Seliciclib + Phenformin; first compound 2.53 µM) | relative viability (Seliciclib + Phenformin; first compound 8 µM) |
| --- | --- | --- | --- | --- | --- | --- | --- | --- | --- | --- | --- | --- | --- | --- | --- | --- | --- | --- | --- | --- |
| LOU-NH91 | 0.789 | 0.916 | 0.919 | 0.85 | 0.723 | 0.638 | 0.686 | 0.583 | 0.62 | 0.515 | 0.591 | 0.61 | 0.591 | 0.695 | 0.482 | 0.609 | 0.666 | 0.671 | 0.589 | 0.552 |
| LU99A | 0.962 | 0.836 | 0.953 | 0.69 | 0.775 | 0.282 | 0.29 | 0.32 | 0.209 | 0.205 | 0.9 | 0.671 | 0.69 | 0.759 | 0.711 | 0.898 | 0.937 | 0.817 | 0.705 | 0.714 |
| LXF-289 | 0.983 | 1.2 | 0.972 | 1.02 | 0.91 | 0.189 | 0.192 | 0.203 | 0.18 | 0.158 | 0.937 | 1.03 | 0.795 | 0.934 | 0.914 | 0.52 | 0.505 | 0.501 | 0.507 | 0.496 |
| NCI-H23 | 1.01 | 0.81 | 0.991 | 0.449 | 0.565 | 0.424 | 0.368 | 0.379 | 0.426 | 0.322 | 0.813 | 0.677 | 0.842 | 0.624 | 0.565 | 0.83 | 0.809 | 0.784 | 0.672 | 0.603 |
| NCI-H322M | 0.932 | 1.09 | 0.798 | 0.799 | 0.753 | 0.49 | 0.497 | 0.474 | 0.462 | 0.435 | 1.22 | 1.34 | 1.12 | 1.37 | 1.24 | 0.861 | 0.967 | 0.693 | 0.673 | 0.536 |
| NCI-H441 | 1.07 | 1.01 | 1.06 | 0.783 | 0.566 | 0.729 | 0.598 | 0.704 | 0.513 | 0.406 | 0.603 | 0.365 | 0.526 | 0.566 | 0.59 | 0.836 | 0.804 | 0.805 | 0.459 | 0.632 |
| NCI-H460 | 0.952 | 1.13 | 0.996 | 1.04 | 0.889 | 0.525 | 0.561 | 0.502 | 0.465 | 0.363 | 1.1 | 1.13 | 1.03 | 1.1 | 0.801 | 0.55 | 0.526 | 0.515 | 0.567 | 0.469 |
| NCI-H520 | 0.918 |  | 0.968 | 1.12 | 0.843 | 0.47 |  | 0.406 | 0.459 | 0.573 | 0.96 | 0.847 | 0.997 | 1.2 | 1.18 | 0.61 |  | 0.571 | 0.634 | 0.38 |
| NCI-H596 | 1.01 |  | 0.948 | 0.991 | 0.872 | 0.862 |  | 0.849 | 1.03 | 0.865 | 1 | 0.567 | 0.891 | 1.16 | 0.826 | 0.66 |  | 0.83 | 0.784 | 0.595 |
| NCI-H647 | 0.971 | 0.836 | 1.03 | 0.939 | 0.754 | 0.278 |  | 0.262 | 0.348 | 0.303 | 1.02 | 1 | 1.06 | 1.12 | 0.878 | 0.515 |  | 0.537 | 0.603 | 0.409 |
| NCI-H727 | 0.85 | 0.891 | 0.8 | 0.796 | 0.75 | 0.616 | 0.89 | 0.528 | 0.557 | 0.487 | 0.509 | 0.494 | 0.407 | 0.43 | 0.309 | 0.562 | 0.488 | 0.561 | 0.373 | 0.472 |
| NCI-H838 | 0.945 | 0.956 | 0.944 | 0.926 | 0.805 | 0.252 | 0.257 | 0.304 | 0.25 | 0.253 | 1.11 | 1.03 | 1.2 | 1.26 | 0.917 | 0.59 | 0.559 | 0.561 | 0.461 | 0.329 |
| NCI-H1355 | 0.977 | 0.959 | 0.89 | 0.905 | 0.959 | 0.586 | 0.517 | 0.513 | 0.506 | 0.388 | 0.952 | 0.861 | 1.01 | 1.13 | 0.873 | 0.436 | 0.443 | 0.433 | 0.423 | 0.435 |
| NCI-H1395 | 0.978 | 0.725 | 0.857 | 0.789 | 0.94 | 0.738 | 0.718 | 0.719 | 0.718 | 0.69 | 1.12 | 0.936 | 1.31 | 1.08 | 1.06 | 0.433 | 0.438 | 0.455 | 0.453 | 0.428 |
| NCI-H1437 | 0.965 | 1.12 | 0.968 | 0.95 | 0.872 | 0.425 | 0.431 | 0.405 | 0.4 | 0.352 | 1.01 | 1.11 | 1.07 | 1.15 | 0.885 | 0.347 | 0.353 | 0.291 | 0.241 | 0.262 |
| NCI-H1650 | 0.926 | 1.1 | 0.95 | 0.824 | 0.663 | 0.387 | 0.437 | 0.364 | 0.422 | 0.318 | 1.12 | 1.01 | 1.07 | 1.21 | 1.08 | 0.436 | 0.525 | 0.462 | 0.424 | 0.264 |
